Measurements taken from patent US11572358B2, “Solid forms of an sGC stimulator” (Cyclerion Therapeutics, Inc., priority 2016, dated 2023).

Assay: Storage stability at 40° C. and 75% relative humidity, XRPD trace before and after
Assay type: physicochemical
Conditions: stored for 14 months at 40° C. and 75% relative humidity
Method: When comparing XRPD spectra, a spectrum will be “substantially similar” to one shown in this disclosure for a particular solid form of Compound I, wherein the characteristic peaks in said spectrum are measured at the same values of °2θ as those shown in the figure of this disclosure, or within a range of + or −0.5 units of °2θ from those peaks shown in said figure.
X-Ray Powder Diffraction traces were obtained using a D8 Advance, Bruker apparatus; using one of two Methods:
Scan 5-45° 2-theta, 0.02° step size, 1 sec per step; or
Scan 3-40° 2-theta, 0.037° step size, 1.5 sec per step

XRPD trace after storage: essentially unchanged
SMILES: NC(=O)[C@](O)(CNc1nc(-c2cc(-c3ccon3)n(Cc3ccccc3F)n2)ncc1F)C(F)(F)F [Form B, (R)-3,3,3-trifluoro-2-(((5-fluoro-2-(1-(2-fluorobenzyl)-5-(isoxazol-3-yl)-1H-pyrazol-3-yl)pyrimidin-4-yl)amino)methyl)-2-hydroxypropanamide]
